Reference: US20170210741A1, “Benzimidazole Compounds, Use As Inhibitors of WNT Signaling Pathway in Cancers, and Methods for Preparation Thereof” (Southern Research Institute, priority 2016, published 2017)
Read-outs that look alike come from different tables or passages of the source. Each block holds one compound with its values, some of them ahead of it.

Columns and labels:
Type in all cases: cell-based
Wnt signaling = Wnt signaling reporter assay (Super8XTOPFlash luciferase) in LRP6-expressing HEK293 cells; conditions: Homo sapiens, 24 h treatment, luciferase normalized to β-galactosidase, read-out: IC50 (effects on Wnt signaling)
Procedure: HEK293 cells were plated into 24-well plates. After overnight culture, the cells were transiently transfected with 0.06 μg of the Super8XTOPFlash luciferase construct, 0.06 μg of β-galactosidase-expressing vector, and 0.06 μg of pCS-Myc-hLRP6 or control vector. After 24 h incubation, cells were treated with each individual compound in triplicate for 24 h. Cells were then lysed, and the luciferase and β-galactosidase activities were determined by the luciferase assay system (Promega) and β-galactosidase assay system (Promega), respectively. The luciferase activity was normalized to the β-galactosidase activity.
Table 2 below illustrates the effects of the disclosed compounds on Wnt signaling in LRP6-expressing HEK293 cells.

PANC-1 = assay: In vitro cell viability assay (Cell Titer Glo), pancreatic cancer PANC-1; conditions: Homo sapiens, 72 h
Procedure: (§1) Breast cancer SUM159 was obtained from Asterand and grown according to supplier's recommendation. All other cell lines were obtained from ATCC and cultured in standard cell culture conditions with complete cell culture medium containing 10% FBS.
(§2) Cancer cells were seeded into optically clear tissue culture-treated black 96-well plates (for adherent cells) or low-attachment 96-well plates (for cancer stem cells) at 2,000-5000 cells/50 μL of media per well. The cells were treated with Wnt inhibitors at 0.1 to 10 μM for 72 h. Cell viability was measured by the Cell Titer Glo Assay from Promega.

Suit-2 = assay: In vitro cell viability assay (Cell Titer Glo), pancreatic cancer Suit-2; conditions: 72 h
Procedure: as §1, §2

S2VP10 = assay: In vitro cell viability assay (Cell Titer Glo), pancreatic cancer S2VP10; conditions: 72 h
Procedure: as §1, §2

L3.6pl = assay: In vitro cell viability assay (Cell Titer Glo), pancreatic cancer L3.6pl; conditions: Homo sapiens, 72 h
Procedure: as §1, §2

2LMP = assay: In vitro cell viability assay (Cell Titer Glo), breast cancer 2LMP; conditions: 72 h
Procedure: as §1, §2
(§3) Table 5 below illustrates the effects of the disclosed compounds on cell viability of breast cancer cell lines.

HCC1143 = assay: In vitro cell viability assay (Cell Titer Glo), breast cancer HCC1143; conditions: Homo sapiens, 72 h
Procedure: as §1, §2, §3

MDA-MB-468 = assay: In vitro cell viability assay (Cell Titer Glo), breast cancer MDA-MB-468; conditions: Homo sapiens, 72 h
Procedure: as §1, §2, §3

SUM159 = assay: In vitro cell viability assay (Cell Titer Glo), breast cancer SUM159; conditions: 72 h
Procedure: as §1, §2, §3

HCT116 = assay: In vitro cell viability assay (Cell Titer Glo), colorectal cancer HCT116; conditions: Homo sapiens, HCT-116, 72 h
Procedure: as §1, §2
(§4) Table 4 below illustrates the effects of the disclosed compounds on cell viability of colorectal cancer cell lines.

HT-29 = assay: In vitro cell viability assay (Cell Titer Glo), colorectal cancer HT-29; conditions: Homo sapiens, 72 h
Procedure: as §1, §2, §4

[1] = PANC-1, adherent, complete medium 10% FBS, read-out: Cell viability (IC50) PANC-1 Adherent
[2] = PANC-1, cancer stem cell (CSC) enriching serum free medium, non-adherent plates, read-out: Cell viability (IC50) PANC-1 CSC
[3] = Suit-2, CSC enriching serum free medium, non-adherent plates, read-out: Cell viability (IC50) Suit-2 CSC
[4] = Suit-2, adherent, complete medium 10% FBS, read-out: Cell viability (IC50) Suit-2 Adherent
[5] = S2VP10, CSC enriching serum free medium, non-adherent plates, read-out: Cell viability (IC50) S2VP10 CSC
[6] = S2VP10, adherent, complete medium 10% FBS, read-out: Cell viability (IC50) S2VP10 Adherent
[7] = CSC enriching serum free medium, non-adherent plates, read-out: Cell viability (IC50) L3.6pl CSC
[8] = adherent, complete medium 10% FBS, read-out: Cell viability (IC50) L3.6pl Adherent
[9] = CSC conditions, read-out: Cell viability (IC50) 2LMP CSC
[10] = adherent, read-out: Cell viability (IC50) 2LMP Adherent
[11] = HCC1143, CSC conditions, read-out: Cell viability (IC50) HCC1143 CSC
[12] = HCC1143, adherent, read-out: Cell viability (IC50) HCC1143 Adherent
[13] = MDA-MB-468, CSC conditions, read-out: Cell viability (IC50) MDA-MB-468 CSC
[14] = MDA-MB-468, adherent, read-out: Cell viability (IC50) MDA-MB-468 Adherent
[15] = SUM159, CSC conditions, read-out: Cell viability (IC50) SUM159 CSC
[16] = SUM159, adherent, read-out: Cell viability (IC50) SUM159 Adherent
[17] = HCT116, CSC conditions, read-out: Cell viability (IC50) HCT116 CSC
[18] = HCT116, adherent, read-out: Cell viability (IC50) HCT116 Adherent
[19] = HT-29, adherent, read-out: Cell viability (IC50) HT-29 Adherent
[20] = HT-29, CSC conditions, read-out: Cell viability (IC50) HT-29 CSC

SMILES: FC(F)(F)c1ccc(-c2nc3c(Cl)cc(Cl)cc3[nH]2)cc1 [Compound 7, 4,6-Dichloro-2-(4-(trifluoromethyl)phenyl)-1H-benzo[d]imidazole]
IC50 (Wnt signaling): 6010 nM
IC50 (PANC-1; [1]): 4470 nM
IC50 (PANC-1; [2]): 300 nM
IC50 (Suit-2; [3]): 610 nM
IC50 (Suit-2; [4]): 5210 nM
IC50 (S2VP10; [5]): 770 nM
IC50 (S2VP10; [6]): 3880 nM
IC50 (L3.6pl; [7]): 660 nM
IC50 (L3.6pl; [8]): 570 nM
IC50 (2LMP; [9]): 13000 nM
IC50 (2LMP; [10]): 16800 nM
IC50 (HCC1143; [11]): 700 nM
IC50 (HCC1143; [12]): 4500 nM
IC50 (MDA-MB-468; [13]): 160 nM
IC50 (MDA-MB-468; [14]): 1290 nM
IC50 (SUM159; [15]): 900 nM
IC50 (SUM159; [16]): 1130 nM

SMILES: Oc1ccc(F)cc1-c1nc2c(Cl)cc(Cl)cc2[nH]1 [Compound 1, 2-(4,6-Dichloro-1H-benzo[d]imidazol-2-yl)-4-fluorophenol]
IC50 (Wnt signaling): 1340 nM
IC50 (PANC-1; [1]): 1740 nM
IC50 (PANC-1; [2]): 210 nM
IC50 (Suit-2; [3]): 2840 nM
IC50 (Suit-2; [4]): 9130 nM
IC50 (S2VP10; [5]): 920 nM
IC50 (S2VP10; [6]): 1620 nM

SMILES: Oc1c(Cl)cccc1-c1nc2cc(C(F)(F)F)ccc2[nH]1 [Compound 5, 2-Chloro-6-(5-(trifluoromethyl)-1H-benzo[d]imidazol-2-yl)phenol]
IC50 (Wnt signaling): 2770 nM
IC50 (PANC-1; [1]): 1330 nM
IC50 (PANC-1; [2]): 180 nM
IC50 (Suit-2; [3]): 1150 nM
IC50 (Suit-2; [4]): 3160 nM
IC50 (S2VP10; [5]): 210 nM
IC50 (S2VP10; [6]): 1040 nM
IC50 (2LMP; [9]): 920 nM
IC50 (2LMP; [10]): 1150 nM
IC50 (HCC1143; [11]): 500 nM
IC50 (HCC1143; [12]): 1190 nM
IC50 (MDA-MB-468; [13]): 170 nM
IC50 (MDA-MB-468; [14]): 1410 nM
IC50 (SUM159; [15]): 340 nM
IC50 (SUM159; [16]): 500 nM

SMILES: Oc1ccc(F)cc1-c1nc2cc(Cl)c(F)cc2[nH]1 [Compound 3, 2-(5-Chloro-6-fluoro-1H-benzo[d]imidazol-2-yl)-4-fluorophenol]
IC50 (Wnt signaling): 2800 nM
IC50 (PANC-1; [1]): 2320 nM
IC50 (PANC-1; [2]): 410 nM
IC50 (Suit-2; [3]): 1810 nM
IC50 (Suit-2; [4]): 3760 nM
IC50 (S2VP10; [5]): 330 nM
IC50 (S2VP10; [6]): 1100 nM
IC50 (HCT116; [17]): 180 nM
IC50 (HCT116; [18]): 1610 nM
IC50 (HT-29; [20]): 3090 nM
IC50 (HT-29; [19]): 6470 nM

SMILES: FC(F)(F)Oc1ccc(-c2nc3cc(Cl)c(Cl)cc3[nH]2)cc1 [Compound 6, 5,6-Dichloro-2-(4-(trifluoromethoxy)phenyl)-1H-benzo[d]imidazole]
IC50 (Wnt signaling): 190 nM
IC50 (PANC-1; [1]): 3440 nM
IC50 (PANC-1; [2]): 570 nM
IC50 (Suit-2; [3]): 560 nM
IC50 (Suit-2; [4]): 2120 nM
IC50 (S2VP10; [5]): 590 nM
IC50 (S2VP10; [6]): 2570 nM
IC50 (L3.6pl; [7]): 930 nM
IC50 (HCT116; [17]): 1610 nM
IC50 (HCT116; [18]): 3840 nM
IC50 (HT-29; [20]): 860 nM
IC50 (HT-29; [19]): 4380 nM
IC50 (2LMP; [9]): 2900 nM
IC50 (2LMP; [10]): 3840 nM
IC50 (HCC1143; [11]): 1300 nM
IC50 (HCC1143; [12]): 3180 nM
IC50 (MDA-MB-468; [13]): 330 nM
IC50 (MDA-MB-468; [14]): 3830 nM
IC50 (SUM159; [15]): 1170 nM
IC50 (SUM159; [16]): 1670 nM

Further lines, with some results ahead:

IC50 (PANC-1; [1]): > 10000 nM
IC50 (PANC-1; [2]): 1060 nM
IC50 (Suit-2; [3]): 840 nM
IC50 (Suit-2; [4]): 8920 nM
IC50 (S2VP10; [5]): 770 nM
IC50 (S2VP10; [6]): 4860 nM
IC50 (L3.6pl; [7]): 620 nM
IC50 (L3.6pl; [8]): 1190 nM
SMILES: FC(F)(F)Oc1ccc(-c2nc3c(Cl)cc(Cl)cc3[nH]2)cc1 [Compound 8, 4,6-Dichloro-2-(4-(trifluoromethoxy)phenyl)-1H-benzo[d]imidazole]
IC50 (Wnt signaling): 7920 nM

IC50 (Suit-2; [3]): 1990 nM
IC50 (Suit-2; [4]): 8920 nM
IC50 (S2VP10; [5]): 2910 nM
IC50 (S2VP10; [6]): 8310 nM
IC50 (HCT116; [17]): 1760 nM
IC50 (HCT116; [18]): 830 nM
IC50 (HT-29; [19]): 140 nM
SMILES: CN1CCN(c2ccc(-c3nc4cc(Cl)c(Cl)cc4[nH]3)cc2F)CC1 [Compound 27, 5,6-dichloro-2-(3-fluoro-4-(4-methylpiperazin-1-yl)phenyl)-1H-benzo[d]imidazole]
IC50 (Wnt signaling): 4.67 nM

IC50 (Suit-2; [3]): 940 nM
IC50 (Suit-2; [4]): 950 nM
IC50 (S2VP10; [5]): 750 nM
IC50 (S2VP10; [6]): 510 nM
IC50 (HCT116; [17]): 160 nM
IC50 (HCT116; [18]): 580 nM
IC50 (HT-29; [20]): 40 nM
IC50 (HT-29; [19]): 590 nM
SMILES: Fc1cc2[nH]c(-c3ccc(N4CCCC4)cc3)nc2cc1Cl [Compound 31, 5-chloro-6-fluoro-2-(4-(pyrrolidin-1-yl)phenyl)-1H-benzo[d]imidazole]
IC50 (Wnt signaling): 330 nM

IC50 (Suit-2; [3]): > 10000 nM
IC50 (Suit-2; [4]): 970 nM
IC50 (S2VP10; [5]): > 10000 nM
IC50 (S2VP10; [6]): 1680 nM
IC50 (HCT116; [17]): 570 nM
IC50 (HCT116; [18]): 1010 nM
IC50 (HT-29; [20]): 40 nM
IC50 (HT-29; [19]): 670 nM
SMILES: Clc1cc2nc(-c3ccc(N4CCCCC4)cc3)[nH]c2cc1Cl [Compound 11, 5,6-dichloro-2-(4-(piperidin-1-yl)phenyl)-1H-benzo[d]imidazole]
IC50 (Wnt signaling): 0.95 nM

IC50 (Suit-2; [3]): 1340 nM
IC50 (Suit-2; [4]): 5260 nM
IC50 (S2VP10; [5]): 910 nM
IC50 (S2VP10; [6]): 4760 nM
IC50 (HCT116; [17]): 21000 nM
IC50 (HCT116; [18]): 11200 nM
IC50 (HT-29; [20]): 130 nM
IC50 (HT-29; [19]): 3290 nM
SMILES: CN1CCN(c2ccc(-c3nc4cc(Cl)c(Cl)cc4[nH]3)cc2)CC1 [Compound 10, 5,6-Dichloro-2-(4-(4-methylpipcrazin-1-yl)phenyl)-1H-benzo[d]imidazole]
IC50 (Wnt signaling): 13 nM

IC50 (Suit-2; [3]): 150 nM
IC50 (Suit-2; [4]): 160 nM
IC50 (S2VP10; [5]): 80 nM
IC50 (S2VP10; [6]): 110 nM
IC50 (HCT116; [17]): 80 nM
IC50 (HCT116; [18]): 110 nM
IC50 (HT-29; [20]): 50 nM
IC50 (HT-29; [19]): 60 nM
SMILES: c1cc2[nH]c(-c3ccc(N4CCCC4)cc3)nc2cn1 [Compound 28, 2-(4-(pyrrolidin-1-yl)phenyl)-1H-imidazo[4,5-c]pyridine]
IC50 (Wnt signaling): 10400 nM
